Measured values reported in the supplement of paper PMC10307832.

compound: C1=CC2=NC=CN=C2C=C1/C=C/3\C(=O)NC(=O)S3 + C[C@]1(O)C[C@@H](c2nc(-c3ccc4ccc(-c5ccccc5)nc4c3)c3c(N)nccn32)C1 [Linsitinib] (partner 1 µM); test: relative viability (nuclei count vs DMSO), 5 days (fraction); higher = more cells survive; conditions: first compound 0.2 µM
How it was run: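 Lung cancer cell lines in 1536-well plates were dosed by pin tool the day after seeding, either with one drug alone or with a fixed anchor-drug dose plus five library-drug doses (not always all listed) in √10 steps. After 5 days, cells were fixed and their nuclei stained in one step (final 0.05% Triton X-100, 1% formaldehyde, 1 ug/ml Hoechst), then counted on 4× images. Relative viability is the nuclei count in treated wells divided by that in vehicle wells. Values are medians of duplicate plates.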

Point of comparison: NCI-H3122, relative viability 0.955. Against it:
- LXF-289 — higher, 0.993
- NCI-H23 — lower, 0.717
- NCI-H647 — higher, 1.41
- CAL-12T — lower, 0.953
- NCI-H1651 — higher, 0.989
- EPLC-272H — higher, 1.25
- NCI-H2228 — higher, 1.08
- NCI-H1792 — lower, 0.557
- NCI-H1355 — lower, 0.843
- NCI-H1437 — higher, 1.05
- NCI-H1755 — higher, 1.02
- NCI-H2023 — lower, 0.611
- HCC-15 — lower, 0.912
- PC-14 — higher, 0.994
- EKVX — higher, 0.983

same assay, conditions: first compound 0.6325 µM

Point of comparison: NCI-H2009, relative viability 1.18. Against it:
- LU99A — lower, 0.5
- BEN — lower, 0.843
- HARA — lower, 0.942
- HCC-78 — lower, 0.497
- NCI-H322M — lower, 0.896
- LCLC-97TM1 — lower, 0.162
- A-427 — lower, 1.14
- NCI-H661 — lower, 0.583
- NCI-H1734 — lower, 0.789
- NCI-H460 — lower, 0.687
- NCI-H2347 — lower, 0.993
- SK-LU-1 — lower, 1.06
- 201T — lower, 0.949
- NCI-H1915 — lower, 1.12
- HCC-827 — lower, 0.935
- LXF-289 — lower, 0.941
- NCI-H23 — lower, 0.588
- NCI-H647 — lower, 1.1
- CAL-12T — lower, 0.881
- NCI-H1651 — lower, 0.916
- EPLC-272H — lower, 1.1
- NCI-H2228 — lower, 0.55
- NCI-H1792 — lower, 0.456
- NCI-H1355 — lower, 0.79
- NCI-H3122 — lower, 1
- NCI-H1437 — lower, 0.979
- NCI-H1755 — lower, 0.978
- NCI-H2023 — lower, 0.568
- HCC-15 — lower, 0.861
- PC-14 — lower, 1.02
- EKVX — lower, 0.981

same assay, conditions: first compound 2 µM

Point of comparison: HCC-78, relative viability 0.403. Against it:
- LU99A — higher, 0.475
- BEN — higher, 0.93
- HARA — higher, 0.975
- NCI-H322M — higher, 0.918
- LCLC-97TM1 — lower, 0.145
- NCI-H2009 — higher, 1.2
- A-427 — higher, 1.07
- NCI-H661 — higher, 0.56
- NCI-H1734 — higher, 0.841
- NCI-H460 — higher, 0.872
- NCI-H2347 — higher, 0.92
- SK-LU-1 — higher, 0.989
- 201T — higher, 1.01
- NCI-H1915 — higher, 1.08
- HCC-827 — higher, 0.884
- LXF-289 — higher, 0.933
- NCI-H23 — higher, 0.603
- NCI-H647 — higher, 1.08
- CAL-12T — higher, 0.839
- NCI-H1651 — higher, 0.939
- EPLC-272H — higher, 1.26
- NCI-H2228 — higher, 0.609
- NCI-H1792 — higher, 0.593
- NCI-H1355 — higher, 0.804
- NCI-H3122 — higher, 1.17
- NCI-H1437 — higher, 0.969
- NCI-H1755 — higher, 0.979
- NCI-H2023 — higher, 0.632
- HCC-15 — higher, 0.885
- PC-14 — higher, 0.993
- EKVX — higher, 0.945
